{
  "source": "patent US20250057959A1",
  "about": "“PHOSPHANE GOLD(I)-N-HETEROCYCLIC CARBENE COMPLEXES FOR TREATING CANCER” (KING FAHD UNIVERSITY OF PETROLEUM AND MINERALS, priority 2023, published 2025)",
  "key": {"A2780": {"tested_on": "A2780", "experiment": "MTT cell viability assay, A2780", "type": "cell-based, human", "source_text": "Human epithelial ovarian cancer A2780 cell line and its cisplatin-resistant clone A2780cis were obtained from Sigma-Aldrich (Milano, Italy). SKOV3 (HTB-77) cells were from the American Type Culture Collection (ATCC). The two cell lines were selected to reflect the two different stages of OvCa and different sensitivity to cisplatin. A2780 cell lines were derived from the ovarian tumor tissue of an untreated patient, while SKOV3 was from the ascitic fluids (after metastasis). Cells were authenticated in the laboratory using PowerPlex 16 HS system (Promega) and GeneMapper ID version 3.2.1 to identify DNA short tandem repeats. Cell lines were cultured in RPMI-1640 medium containing 10% fetal bovine serum (FBS) (Gibco, Thermo Fisher Scientific, U.S.A), 1% (v/v) of penicillin (10,000 units/mL)-streptomycin (10 mg/mL), and 1% (v/v) L-glutamine (200 mM) (all from Sigma- Aldrich) at 37° C. in a 5% CO2 fully humidified atmosphere. A2780cis cells were continuously exposed to 1 μM cisplatin to maintain cisplatin resistance. Adipose-derived stem cells (ADSCs) were purchased from Lonza and maintained in mesenchymal-stem-cell growth medium Bulletkit MSCGM (Lonza, Verviers, Belgium).\n(§1) 4.0×10^3/mL A2780, A2780cis, and SKOV3 cells were seeded in 96-well microplates in 100 μL of culture medium. Cells were allowed to adhere for 24 hours and then were treated in triplicate with increasing concentrations of gold compounds (0-1 μM). Cisplatin was included as a reference drug. Cell viability was evaluated using 3-(4,5-dimethylthiazol-2-yl)-2,5-diphenyltetrazolium bromide (MTT) assay (Sigma-Aldrich) after 72 hours of treatment. Half maximal inhibitory concentrations (IC50) were calculated using the CalcuSyn software version 2 (Biosoft, Ferguson, MO, USA). Fold resistance was calculated as the ratio of the IC50 of the A2780cis to that of the parental cell line A2780."}, "[1]": {"tested_on": "adipose-derived stem cells (ADSCs)", "experiment": "Cell viability in normal adipose-derived stem cells", "type": "cell-based", "settings": "72 hours treatment, normal human cells", "source_text": "Human epithelial ovarian cancer A2780 cell line and its cisplatin-resistant clone A2780cis were obtained from Sigma-Aldrich (Milano, Italy). SKOV3 (HTB-77) cells were from the American Type Culture Collection (ATCC). The two cell lines were selected to reflect the two different stages of OvCa and different sensitivity to cisplatin. A2780 cell lines were derived from the ovarian tumor tissue of an untreated patient, while SKOV3 was from the ascitic fluids (after metastasis). Cells were authenticated in the laboratory using PowerPlex 16 HS system (Promega) and GeneMapper ID version 3.2.1 to identify DNA short tandem repeats. […]\nas §1, with “Cells were allowed to adhere for 24 hours and then were treated in triplicate with increasing concentrations of gold compounds (0-1 μM). Cisplatin was included as a reference drug.” left out"}, "[2]": {"tested_on": "A2780, A2780cis, and SKOV3 cells", "experiment": "Cell cycle analysis (PI, flow cytometry), three OvCa lines", "type": "cell-based, human", "settings": "24 hours, 0.15 μM and 0.5 μM", "method": "(§2) 2.0×10^5/mL A2780 and A2780cis cells were seeded in 6-well plates in complete medium and treated with complex 6 (0.15 μM and 0.5 μM). Results were detected by flow cytometry on a BD FACSCanto II flow cytometer. Data were analyzed using BD FACSDiva version 8.0.1 software (BD Biosciences) unless otherwise indicated. To evaluate apoptosis, tumor cells were treated for 48 hours and then stained for 15 minutes with FITC annexin-V (Thermo Fisher Scientific) and 7AAD (BD Pharmingen). […] For B-cell lymphoma/leukemia-2 (Bcl-2) and Bcl-2 associated x protein (Bax) evaluation, cells were fixed and permeabilized using FIX & PERM cell fixation and cell permeabilization kit (Life Technologies). For ROS generation, cells were stained with 5 μM MitoSOX red mitochondrial superoxide indicator (ThermoFisher Scientific) in a working solution for 30 minutes at 37° C. Cell cycle analysis was performed after 24 hours treatment with complex 6. Cells were harvested, fixed in cold 70% ethanol for 15 minutes, and stained with propidium iodide (PI) solution ([…] PI, 0.1% NP-40, 100 µg/mL PureLink RNase A, 0.1% sodium citrate) for 1 hour. The distribution of cells in different cell cycle phases was quantified using ModFit LT 4.0 software (Verity Software House, Topsham, ME, USA)."}, "OvCa cells": {"tested_on": "OvCa cells", "experiment": "Western blot of cell cycle regulatory proteins", "type": "cell-based, human", "settings": "24 hours", "method": "(§3) Whole-cell lysates were prepared using cold RIPA buffer [150 mM NaCl, 50 mM Tris-HCl (pH 8), 0.1% SDS, 1% Igepal, and 0.5% desoxycholate sodium] containing a protease inhibitor cocktail (Roche Diagnostics S.p.a., Milan, Italy), phosphatase inhibitors 1 mM Na3VO4 and 1 mM NaF (Sigma-Aldrich). Protein concentrations were determined using the BioRad protein assay (Bio-Rad Laboratories, Inc., CA, USA). Equal amounts of proteins were mixed with Laemmli buffer, separated in 4-20% SDS-PAGE (Criterion Precast Gel, BioRad), and blotted onto a nitrocellulose membrane (Amersham, GE Healthcare). Membrane strips were blocked with EveryBilot blocking buffer (Bio-Rad) and incubated at 4° C. overnight with primary antibodies probed with the appropriate antibodies (Table 2) and developed using Immobilon Western chemioluminescent HRP substrate. Images were acquired using a ChemiDoc XRS system (Bio-Rad)."}, "SKOV3-MCTSs": {"tested_on": "SKOV3-MCTSs", "experiment": "Apoptosis, mitROS and DNA-DSBs in SKOV3-MCTSs", "type": "cell-based, human", "method": "To obtain multiple spheroids, 5.0×10^4/mL SKOV3 cells were seeded in nonadherent conditions on poly-HEMA coated wells for 4 days. After drug treatment, viable cells were evaluated using PrestoBlue cell viability reagent (Thermo Fisher Scientific, Frederick, MD, USA) or alternatively trypsinized to a single cell suspension for further analysis.\nas §2, §3"}, "20S proteasome": {"molecular_target": "T1, 20S proteasome (Homo sapiens, UniProt P28074)", "T1 construct": "endogenous in cells; host or cells: A2780, A2780cis and SKOV3 ovarian cancer cells, treated for 24 h and then lysed", "experiment": "20S proteasome activity in lysates of treated cells", "type": "cell-based", "settings": "OvCa cells treated 24 hours", "method": "Proteasome activity (EC 3.4.25.1) was evaluated on the same cell lysates as TrxR using the 20S proteasome activity assay kit APT280 (Merck Millipore) and a computer-interfaced GeniusPlus microplate reader (Tecan Trading AG, Switzerland). The activity was normalized to the protein concentration and expressed as a percentage of control."}, "[3]": {"tested_on": "tumor xenografts derived from SKOV3 cells", "experiment": "SKOV3 xenograft tumor growth in athymic nude mice", "type": "in vivo", "settings": "two injections/week", "method": "(§4) Animal experimentation was reviewed and approved by Centro di Riferimento Oncologico di Aviano (CRO) Institutional Organism for Animal Wellbeing (OPBA) and approved by the Italian Ministry of Health (No. 671/2015/PR). All animal experiments were conducted in adherence to the international and institutional committees' ethical guidelines. Ten 4-week-old female athymic nude NU(NCr)-Foxn1^nu mice were purchased from Charles Rivers (Lecco, Italy). SKOV3 (10×10^6 cells/animal) were suspended in BD Matrigel basement membrane matrix (BD Biosciences) (diluted 1:3 in PBS) and inoculated into the animals' right flank. When tumors were palpable, animals were divided into two groups of five mice each, and treated with intratumoral injection of complex 6 (2 mg/kg) or vehicle (10% DMSO, 20% Cremophor Sigma-Aldrich, 70% PBS) two times a week. Body weight and tumors were examined regularly. Tumor size was measured using a digital caliper, and volumes were calculated according to the formula (width^2×length×3.14)/6."}, "[4]": {"experiment": "Body weight and physical inspection of xenografted mice", "type": "in vivo", "settings": "2 mg/kg intratumoral, two injections/week", "method": "as §4"}},
  "note": "“Also recorded” adds a separate entry of the source.",
  "data": [
    {"smiles": "CC(C)c1cccc(C(C)C)c1-n1ccn(-c2c(C(C)C)cccc2C(C)C)[c]1=[Au+][PH](C1CCCCC1)(C1CCCCC1)C1CCCCC1.F[P-](F)(F)(F)(F)F", "note": "[Complex 6, [Au(IPr)(C18H33P)] PF6]", "values": [
      {"measurement": "IC50", "setting": "A2780; 72 hours treatment, MTT", "result": "140 ± 10", "unit": "nM"},
      {"measurement": "Cytotoxic activity ranking within the series", "setting": "A2780; A2780 and A2780cis, Table 8", "result": "most potent"},
      {"measurement": "Activity compared with cisplatin or auranofin in A2780 cells", "setting": "A2780; comparison of IC50, Table 8", "result": "more active than cisplatin; also recorded: more active than auranofin"},
      {"measurement": "IC50", "setting": "[1]", "result": 2500, "unit": "nM"},
      {"measurement": "Effect on cell cycle phases", "setting": "[2]", "result": "induced an accumulation in the G0/G1 phase of the cell cycle and a decrease in the S phases"},
      {"measurement": "Expression of G1/S phase proteins (CDKs, cyclins, E2F1, pRB)", "setting": "OvCa cells", "result": "down-regulated the expression of CDk2, CDk4, CDk6, CycE, CycD1, CycD3"},
      {"measurement": "Expression of cyclin D regulators", "setting": "OvCa cells", "result": "increased the expression of Foxo3A and pGSK-30 and decreased that of Cdc25a, PI3KI, pERK1/2, and bRAF"},
      {"measurement": "mitROS generation in SKOV3-MCTSs", "setting": "SKOV3-MCTSs; 24 hours", "result": "increased mitROS generation"},
      {"measurement": "Caspase-3,7 activation in SKOV3-MCTSs", "setting": "SKOV3-MCTSs; FLICA", "result": "caused the activation of caspase-3,7"},
      {"measurement": "Annexin-V+ cells in SKOV3-MCTSs", "setting": "SKOV3-MCTSs; annexin-V-FITC/7AAD, flow cytometry", "result": "caused an increase of annexin-V+ cells"},
      {"measurement": "DNA-DSBs (γH2AX) in SKOV3-MCTSs", "setting": "SKOV3-MCTSs; western blot", "result": "induced DNA-DSBs"},
      {"measurement": "20S proteasome activity", "setting": "20S proteasome", "result": "decreased the 20S proteasome activity in a dose-dependent manner"},
      {"measurement": "Reduction of tumor volume with respect to vehicle-treated mice", "setting": "[3]; 2 mg/kg intratumoral", "result": "more than 80%"},
      {"measurement": "Tumor mass weight", "setting": "[3]; 2 mg/kg intratumoral", "result": "reduced"},
      {"measurement": "Mean tumor volume", "setting": "[3]; day 35, 2 mg/kg intratumoral, control 869.5±61.9", "result": "155.8±84.5", "unit": "mm^3"},
      {"measurement": "Physical inspection and body weight", "setting": "[4]", "result": "normal to physical inspection with a comparable weight with respect to untreated mice"}
    ]}
  ]
}
